Data from article PMC9617852, “In vitro and in vivo assessment of the antioxidant potential of isoxazole derivatives” (Scientific Reports, 2022).
Converted amounts (≈) assume the structure as drawn. Like-named read-outs stand apart in the source and are kept apart here. Marks after values point to notes of the source that are not given here. Each block holds one molecule with its values, some of them ahead of it.

Key:
[1] = molecular target: T1, porcine pancreatic α-amylase (Sus scrofa, UniProt P00690); assay: α-Amylase inhibitory assay; type: biochemical
T1 construct: purchased Alfa Aesar, Sigma-Aldrich, and Frutarom (UK)
T1 sequence (P00690 16-511): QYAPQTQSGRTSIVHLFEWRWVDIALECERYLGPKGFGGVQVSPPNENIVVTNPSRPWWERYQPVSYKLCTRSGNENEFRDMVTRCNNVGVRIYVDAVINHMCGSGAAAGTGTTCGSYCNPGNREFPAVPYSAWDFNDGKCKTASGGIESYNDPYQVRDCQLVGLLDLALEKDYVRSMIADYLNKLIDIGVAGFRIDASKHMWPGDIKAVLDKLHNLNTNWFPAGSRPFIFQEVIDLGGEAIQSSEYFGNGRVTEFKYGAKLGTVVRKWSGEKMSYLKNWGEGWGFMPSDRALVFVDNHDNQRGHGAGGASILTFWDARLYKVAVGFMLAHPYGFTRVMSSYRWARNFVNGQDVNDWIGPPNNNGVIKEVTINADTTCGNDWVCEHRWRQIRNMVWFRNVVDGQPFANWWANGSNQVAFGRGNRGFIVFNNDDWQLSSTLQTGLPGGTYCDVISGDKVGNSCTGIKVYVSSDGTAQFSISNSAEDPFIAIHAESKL
Experimental: A 5 mg of each fraction was dissolved in a few milliliters of 10% DMSO, and then further dissolved up to 100 ml in 0.02 M Na2HPO4/NaH2PO4, 0.006 M NaCl, pH 6.9 to give finally stock solutions with concentrations of 1000 μg/ml. From these, the following dilutions were prepared of 10, 50, 70, 100, and 500 μg/ml, using 10% DMSO as the diluent. A 0.2 ml volume of 2 units/ml porcine pancreatic α-amylase was mixed with 0.2 ml compounds dilution and was incubated for 10 min at 30 °C. After incubation, 0.2 ml of a freshly prepared 1% starch solution in water was added, and the tubes were then incubated for at least three more minutes. At this point, the reaction was stopped by the addition of 0.2 ml 3,5-dinitro salicylic acid (DNSA) color reagent and was diluted with 5 ml of distilled water, before being heated at 90 °C for 10 min in a water bath. The mixture was then cooled to room temperature, and the absorbance was measured at 540 nm. The blank control was prepared using the same quantities described above, but replacing the compound solution with 0.2 ml buffer.

[2] = tested on: total antioxidant capacity (TAC) in the blood of mice; assay: In vivo total antioxidant capacity (TAC) in mice, Abcam ab65329 kit; conditions: for TAC (Trolox equivalents): plasma
Experimental: For this purpose, the TAC was determined using a commercially available assay kit (Abcam ab65329), in four groups of mice: 2a treated (5 mg/kg over 6 days, n = 5), 2a treated (10 mg/kg over 6 days, n = 5), quercetin treated (positive control; 10 mg/kg over 6 days, n = 5), and vehicle-treated (negative control; n = 5). All mice were sacrificed seven days after the treatment (or the first administration of the vehicle).
The absorbance values of the used kit were plotted against a serial concentration of Trolox standards in the concentration range of (4–20 nM). […] The generated regression line equation was utilized to calculate the Trolox equivalent total antioxidant activity of the injected compound and positive quercetin control of the experimental mice. The average results of the total antioxidant activity of ten replicates of plasma samples were reported. […] The summary of the results is shown in (Fig. 6).
Twenty mice were divided into four groups randomly, with five mice in each. The first group was administered with our novel compound 2a (5 mg/kg), the second group with the same compound (10 mg/kg), the third group with Quercetin (10 mg/kg) as a positive control, and the fourth group with normal saline (20%) and propylene glycol 80% as a negative control group.
To test the TAC of the novel compound, four groups of mice were injected intraperitoneal (i.p.) and employed with vehicle (80% polyethylene glycol (PG) and 20% normal saline (NS) for 6 days. The first and second groups were injected with 5 and 10 mg/kg/day of 2a compound dissolved in the same vehicle, respectively. The third group was injected with a known antioxidant agent positive control (Quercetin), with 10 mg/kg/day, and the last group was the negative control group (80% polyethylene glycol (PG) and 20% Normal saline (NS). All mice were anesthetized with ketamine (60 mg/kg) and xylazine (5 mg/kg) and sacrificed 24 h after the final injection. Then, the mouse blood sample was collected and centrifuged to collect serum. For long-term stability, serum was frozen at − 20 °C[27],[28].
All mice were sacrificed after seven days of treatment by placing each mouse in a plexiglass chamber with 5% of isoflurane anesthetic drug, for 5 min, and then when the mouse was fully sedated, they were sacrificed by rapid decapitation. Trunk blood was collected in EDTA-coated tubes for use in the kit assay[29],[30].
Using DPPH assay that basis on measures the total antioxidant capacity (TAC) of compounds that can transfer hydrogen atoms. […] Antioxidant compounds, which can transfer an electron to DMPD• + , cause a discoloration of the solution. […] The reduced Cu + ion is chelated with a colorimetric probe giving a broad absorbance peak around 570 nm, proportional to the total antioxidant capacity. […]

[3] = molecular target: T2, porcine pancreatic lipase (Sus scrofa, UniProt P00591); assay: Porcine pancreatic lipase inhibition assay; type: biochemical; conditions: substrate p-nitrophenyl butyrate, 37 °C, 410 nm; highest concentration 400 µg/ml
T2 construct: purchased Alfa Aesar, Sigma-Aldrich, and Frutarom (UK)
T2 sequence (P00591 1-450): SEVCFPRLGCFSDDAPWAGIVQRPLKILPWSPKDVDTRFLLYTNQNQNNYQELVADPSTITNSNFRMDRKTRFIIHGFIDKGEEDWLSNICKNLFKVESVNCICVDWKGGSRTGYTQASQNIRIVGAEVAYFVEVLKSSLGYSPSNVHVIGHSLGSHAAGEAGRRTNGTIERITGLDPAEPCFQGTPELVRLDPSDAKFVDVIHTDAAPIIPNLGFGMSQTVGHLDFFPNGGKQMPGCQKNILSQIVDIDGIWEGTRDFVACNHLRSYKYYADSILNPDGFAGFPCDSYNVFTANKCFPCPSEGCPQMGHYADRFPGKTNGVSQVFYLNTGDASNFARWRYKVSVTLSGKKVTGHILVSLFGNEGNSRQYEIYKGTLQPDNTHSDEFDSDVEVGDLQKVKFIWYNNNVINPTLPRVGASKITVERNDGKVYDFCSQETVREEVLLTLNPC
Experimental: Stock solutions of 500 µg/ml were made from each compound in 10% DMSO. From these, a dilution series of five concentrations of 50, 100, 200, 300, and 400 μg/ml were made. A 1 mg/ml stock solution of porcine pancreatic lipase in Tris–HCl buffer was prepared freshly just before use. The substrate, p-nitrophenyl butyrate (PNPB) was prepared by dissolving 20.9 mg in 2 ml acetonitrile. For each working solution, 0.1 ml porcine pancreatic lipase was mixed with 0.2 ml of compound solution from each member of the dilution series. Tris–HCl was added to make the final volume of the working solutions 1 ml, and they were incubated at 37 °C for 15 min. After incubation, 0.1 ml p-nitrophenyl butyrate solution was added to each test tube. The mixture was then incubated for a further 30 min at 37 °C. Pancreatic lipase activity was determined by measuring the hydrolysis of PNPB into p-nitrophenolate at 410 nm, using a UV spectrophotometer. […] Percentage lipase inhibition by compound dilution was calculated with the following equation: Lipaseinhibition%=AB-Ats/AB×100% where, AB is the recorded absorbance of the blank solution, and Ats is the recorded absorbance of the tested sample solution[31].

[4] = DPPH free radical scavenging assay (in vitro antioxidant activity); conditions: DPPH in methanol, 30 min in the dark at 25 °C, absorbance 517 nm
Text: To determine the antioxidant activities, the 2,2-Diphenyl-1-picrylhydrazyl (DPPH) was used, which is considered one of the most widely used methods for measuring the in vitro antioxidant activity of various chemical compounds. This colorimetric method is accurate, easy to perform, and economical, providing a screening of the general activity of the antioxidants and is based on a stable and synthetic radical, DPPH[15].
When DPPH reacts with an antioxidant compound, its free radical property is lost and its color changes from violet to yellow. The decrease in absorbance at 517 nm induced by antioxidants determines the reduction ability of DPPH.
The free DPPH radical scavenging assay was used to measure the antioxidant activity of the isoxazole derivatives. A 1000 μg/ml stock solution of each compound was prepared in methanol. In addition, a 1000 μg/ml solution of Trolox was also prepared (the reference standard). […] Optical densities were then measured with a spectrophotometer at a wavelength of 517 nm. The following equation was used to calculate % DPPH inhibition for each compound, with Trolox as the standard compound: DPPHinhibition%=AB-Ats/AB×100% where, AB is the recorded absorbance of the blank solution, and Ats is the recorded absorbance of the tested sample solution[25].

[5] = tested on: Hep3B; design: method as in doi:10.1515/chem-2021-0078; conditions: Hep3B cancer cell line; cited from earlier work
[6] = Water solubility; type: physicochemical; conditions: can be dissolved with propylene glycol
[7] = design: method as in PMID 33763478; conditions: similar isoxazole series, earlier report; cited from earlier work

Structure (SMILES): C[C@H]1O[C@H](O[C@H]2[C@H](O)[C@@H](O)[C@@H](O[C@H]3[C@H](O)[C@@H](O)C(O)O[C@@H]3CO)O[C@@H]2CO)[C@H](O)[C@@H](O)[C@@H]1N[C@H]1C=C(CO)[C@@H](O)[C@H](O)[C@H]1O (stereo partly drawn) [Acarbose, reference compound]
inhibition at 500 µg/mL ([1]; read-out: percentage of inhibition of α-amylase): 72.5%

IC50 ([1]; starch substrate, DNSA, 540 nm, highest concentration 500 µg/ml): > 1420 µM
IC50 [3]: > 1140 µM
IC50 DPPH [4]: 0.45 ± 0.21 µg/mL (≈ 1.28 µM)
water solubility [6]: low water solubility
Structure (SMILES): Cc1onc(-c2ccc(F)cc2)c1C(=O)Nc1ccc(C(C)(C)C)cc1 [2a, N-(4-(tert-butyl)phenyl)-3-(4-fluorophenyl)-5-methylisoxazole-4-carboxamide]
TAC (Trolox equivalents) ([2]; 5 mg/kg i.p. over 6 days): 640.2 nmol L–1
TAC (Trolox equivalents) ([2]; 10 mg/kg i.p. over 6 days): 682.9 nmol L–1
TAC relative to mice treated with the positive control Quercetin ([2]; i.p.): two folds greater
IC50 against Hep3B [5]: 9.58 µg/mL (≈ 27.2 µM)

Structure (SMILES): O=c1c(O)c(-c2ccc(O)c(O)c2)oc2cc(O)cc(O)c12 [Quercetin, reference compound]
TAC (Trolox equivalents) ([2]; 10 mg/kg i.p. over 6 days): 221.0 nmol L–1

Structure (SMILES): Cc1onc(-c2ccccc2Cl)c1C(=O)Nc1ccc(C(C)(C)C)cc1 [N-(4-(tert-butyl)phenyl)-3-(2-chlorophenyl)-5-methylisoxazole-4-carboxamide]
IC50 DPPH [7]: 7.8 µg/mL (≈ 21.1 µM)

IC50 DPPH [4]: 3.10 ± 0.92^a µg/ml
Structure (SMILES): Cc1c(C)c2c(c(C)c1O)CCC(C)(C(=O)O)O2 (stereo not drawn) [Trolox, reference compound]
